Experimental data taken from patent US10131744B2, “Antimicrobial polyamide compositions and mastitis treatment” (priority 2013, dated 2018).

Conditions: in vivo, iv
From the text: The present invention thus provides novel and non-obvious antimicrobial polyamide compositions, and methods of using same for treating and preventing mastitis in non-human animals. The methods generally comprise administering to an infected animal an effective amount of the veterinary composition to eliminate or cure, completely or substantially, mastitis-causing pathogen(s).

Substance: poly (4,4′-trimethylene dipiperidine bispropanoic acid-co-1,3-diamino propane)
- maximum tolerated dose: ~40 mg/kg
